# Experimental data from the NIST ThermoML archive (doi:10.1016/j.fluid.2014.11.010).
# ± gives the expanded uncertainty stated by the source.
# Settings: 313.15 K; Liquid; Closed cell (Static) method
row,SMILES,vapor or sublimation pressure [kPa]
1,CCCCO [butan-1-ol],2.506 ± 0.015
2,CCC(C)O (centres undefined) [butan-2-ol],6.05 ± 0.02
3,C=CCCCC [hex-1-ene],45 ± 0.092
4,Cc1ccccc1 [toluene],7.876 ± 0.022
